According to US20230172915A1, “DHODH INHIBITOR FOR THE TREATMENT OF COVID-19” (priority 2020, published 2023):
Like-named read-outs stand apart in the source and are kept apart here.

Columns and labels:
[1] = In vivo rat micronucleus assay
[2] = tested on: SARS-CoV-2; assay: SARS-CoV-2 titer in Vero cells, TCID50 assay; format: cell-based
[3] = Study PTC299-ONC-007-NF2: PTC299 plasma level; settings: human, oral, 100 mg BID
[4] = tested on: PBMCs plus fibroblasts (HDFSAg); assay: BioMAP profiling, HDFSAg system; format: cell-based; settings: Homo sapiens
Procedure: (§1) The effect of PTC299 on cytokine production was assessed using BioMAP profiling (BioSeek, now part of Eurofins). The BioMAP system is comprised of complex co-cultures of primary peripheral blood mononuclear cells (PBMCs) with other cell types including B cells, fibroblasts, and endothelial cells allowing for the measurement of physiologically relevant biomarker readouts of the activity of a compound. Using this system, cytokine production was evaluated in the following models of primary cell disease models: • Peripheral blood mononuclear cells (PBMCs) plus venular endothelial cells (sAg) • PBMCs plus B cells (BT) • PBMCs plus fibroblasts (HDFSAg) • TH2 cells plus venular endothelial cells (/TH2).
(§2) Abbreviations in Table 4: BCR, B-cell receptor; BT System, co-culture of CD19+ B cells and PBMC that utilizes BCR stimulation and sub-mitogenic TCR stimulation; HDFSAg system, co-culture of human primary dermal fibroblasts and PBMC that is stimulated with sub-mitogenic TCR levels; IL, interleukin; PBMC, Peripheral Blood Mononuclear Cell; SAg system, co-culture of endothelial cells and PBMC stimulated with mitogenic levels of TCR ligands; TCR, T-cell receptor; /TH2 system, co-culture of endothelial cells and Th2 blasts stimulated with TCR ligands and cytokines; Th2, T helper type 2; VEGF, vascular endothelial growth factor.

[5] = tested on: HT1080 human fibrosarcoma cells; assay: De novo pyrimidine nucleotide synthesis from 15N-glutamine in HT1080 cells; format: cell-based; settings: 100 nM
Description: In this Example, fibrosarcoma cells were used to investigate the effect of PTC299 on pyrimidine nucleotide synthesis. Glutamine is an upstream precursor of dihydroorotic acid in the de novo pyrimidine synthesis pathway, as illustrated in FIG. 1.

[6] = tested on: Ebola virus; assay: microbe, parasite or virus in culture; format: cell-based; settings: Zaire ebolavirus, Vero, read-out: EC50 Ebola virus
[7] = tested on: DHODH; assay: Study PTC299-ONC-007-NF2: serum DHO and VEGF in neurofibromatosis type 2 patients; settings: 100 mg BID
[8] = tested on: PBMCs plus B cells (BT); assay: BioMAP profiling, BT system; format: cell-based; settings: for inhibition at 0.01 µM: 10 nM; for inhibition at 0.1 µM: 100 nM
Procedure: as §1, §2

[9] = Bacterial mutagenicity (Ames) test
[10] = tested on: Hepatitis C virus (replicon); assay: Antiviral activity, Hepatitis C virus replicon (Huh7 cells); format: cell-based; settings: Huh-7
[11] = tested on: West Nile virus; assay: Antiviral activity, West Nile virus (Vero cells); format: cell-based
[12] = tested on: Respiratory syncytial virus; assay: Antiviral activity, Respiratory syncytial virus (Hep2 cells); format: cell-based; settings: human respiratory syncytial virus, HEp-2
[13] = Relative bioavailability tablet versus capsule; settings: in vivo, oral; administered with food; read-out: relative bioavailability of tablet formulation compared with the capsule
Procedure: The rationale for this dosing is based on the following: • The dosing regimen utilizes results from PTC’s extensive clinical, safety, and clinical pharmacology experience with the capsule formulation of PTC299 that was used in prior solid tumor clinical studies. • The tablet formulation has approximately 40% relative bioavailability compared with the capsule when administered with food. • The 200 mg BID dosing for 7 days have been tested previously in healthy volunteers in study PTC299-ONC-002-HV with no serious adverse events. […] The dosing of 200 mg BID for the first 7 days will raise the exposure of the drug quickly to accommodate the need for rapid onset of PTC299 activity..

[14] = AML phase 1b study PTC299-HEM-001-LEU, PK; format: in vivo, human; settings: 80 mg QD tablet loading dose for 7 days followed by 40 mg maintenance dose (cohort 2), AML patients
Procedure: It was anticipated that elimination would not be saturated with 50 mg tablet QD after 7 days of 200 mg tablet BID dosing. This is supported by results from the ongoing AML open-label, non-randomized, phase 1b study, PTC299-HEM-001-LEU.

[15] = tested on: PBMCs plus venular endothelial cells (sAg); assay: BioMAP profiling, SAg system; format: cell-based; settings: for inhibition at 0.01 µM: 10 nM; for inhibition at 0.1 µM: 100 nM
Procedure: as §1, §2

[16] = Single- and repeat-dose toxicology studies in rats
[17] = tested on: Poliovirus; assay: microbe, parasite or virus in culture; format: cell-based; settings: Enterovirus C, HeLa, read-out: EC50 Poliovirus
[18] = Severe acute respiratory syndrome coronavirus 2, Vero cells, extended dose response 0.003-1000 nM
[19] = read-out: % Inhibition s-IL-17F

## COc1ccc([C@H]2c3[nH]c4ccc(Cl)cc4c3CCN2C(=O)Oc2ccc(Cl)cc2)cc1 [PTC299, 4-chlorophenyl (S)-6-chloro-1-(4-methoxyphenyl)-1,3,4,9-tetrahydro-2H-pyrido[3,4-b]indole-2-carboxylate]
[1]
  in vivo rat micronucleus assay: negative
[2]; Example 11, 1, 0.5, or 0.25 µM, 24 hours post infection
  drop in titer versus untreated cells: three log drop in titer
[2]; [18]
  EC50: 2.6 nM
  EC90: 53 nM
[2]; cells preincubated for 18 hours
  viral replication: inhibited viral replication
[2]; excess uridine (100 uM)
  effect of excess uridine on inhibition of SARS-CoV-2 replication: overcame inhibition of SARS-CoV-2 replication
[2]; pre-incubation 2 hours with 250, 500, and 1000 nM, after 24 hours, all dose levels
  reduction of viral replication: about 3 orders of magnitude
[3]
  concentration at 4 h: 1900 ng/mL
[4]; read-out: % Inhibition sVEGF
  inhibition at 0.001 µM: 90%
  inhibition at 0.01 µM: 84%
  inhibition at 0.1 µM: 60%
[4]; HDFSAg, 1 nM, read-out: % Inhibition sIL-6
  inhibition at 0.001 µM: 33%
[4]; HDFSAg, 1 nM, read-out: % Inhibition sIL-17F
  inhibition at 0.001 µM: 46%
[4]; HDFSAg, 10 nM, read-out: % Inhibition IL-8
  inhibition at 0.01 µM: 25%
[4]; HDFSAg, 10 nM, read-out: % Inhibition sIL-2
  inhibition at 0.01 µM: 47%
[4]; HDFSAg, 10 nM, read-out: % Inhibition sIL-6
  inhibition at 0.01 µM: 91%
[4]; HDFSAg, 10 nM, read-out: % Inhibition sIL-10
  inhibition at 0.01 µM: 73%
[4]; HDFSAg, 10 nM, read-out: % Inhibition sIL-17A
  inhibition at 0.01 µM: 57%
[4]; HDFSAg, 10 nM, read-out: % Inhibition sIL-17F
  inhibition at 0.01 µM: 86%
[4]; HDFSAg, 100 nM, read-out: % Inhibition IL-8
  inhibition at 0.1 µM: 44%
[4]; HDFSAg, 100 nM, read-out: % Inhibition MCP-1
  inhibition at 0.1 µM: 33%
[4]; HDFSAg, 100 nM, read-out: % Inhibition MMP-1
  inhibition at 0.1 µM: 23%
[4]; HDFSAg, 100 nM, read-out: % Inhibition sIL-2
  inhibition at 0.1 µM: 68%
[4]; HDFSAg, 100 nM, read-out: % Inhibition sIL-6
  inhibition at 0.1 µM: 96%
[4]; HDFSAg, 100 nM, read-out: % Inhibition sIL-10
  inhibition at 0.1 µM: 81%
[4]; HDFSAg, 100 nM, read-out: % Inhibition sIL-17A
  inhibition at 0.1 µM: 74%
[4]; HDFSAg, 100 nM, read-out: % Inhibition sIL-17F
  inhibition at 0.1 µM: 83%
[4]; HDFSAg, 100 nM, read-out: % Inhibition sTNFa
  inhibition at 0.1 µM: 35%
[5]
  suppression of de novo pyrimidine nucleotide biosynthesis: resulted in suppression of de novo pyrimidine nucleotide biosynthesis
[6]
  EC50: 9 nM
[7]; 8 weeks versus pre-dose
  serum VEGF levels: significantly reduced after 8 weeks of treatment
[7]; post-dose versus pre-dose
  serum DHO levels: elevated at 8 or 16 weeks
[8]; read-out: % Inhibition s-IL-6
  inhibition at 0.01 µM: 53%
  inhibition at 0.1 µM: 72%
[8]; [19]
  inhibition at 0.01 µM: 58%
  inhibition at 0.1 µM: 74%
[8]; read-out: % Inhibition sIL-17A
  inhibition at 0.01 µM: 68%
  inhibition at 0.1 µM: 83%
[8]; read-out: % Inhibition sIgG
  inhibition at 0.01 µM: 97%
  inhibition at 0.1 µM: 98%
[8]; read-out: % Inhibition sTNFa
  inhibition at 0.01 µM: 49%
  inhibition at 0.1 µM: 66%
[8]; B-cell, read-out: % Inhibition B cell proliferation
  inhibition at 0.1 µM: 31%
[9]
  bacterial mutagenicity (Ames) test: negative
[10]
  EC50: 36 nM
[11]
  EC50: 10 nM
[12]
  EC50: 4 nM
[13]
  bioavailability: ~40%
[14]
  time to steady state: ~15 days
[15]; read-out: % Inhibition IL-8
  inhibition at 0.01 µM: 27%
  inhibition at 0.1 µM: 29%
[15]; read-out: % Inhibition MCP-1
  inhibition at 0.01 µM: 31%
  inhibition at 0.1 µM: 45%
[15]; read-out: % Inhibition CD40
  inhibition at 0.1 µM: 29%
[15]; read-out: % Inhibition Proliferation
  inhibition at 0.1 µM: 23%
[16]; rats dosed through 28 days
  alanine aminotransferase, aspartate aminotransferase, and total bilirubin: no increases
  histopathologic findings in the liver: no histopathologic findings in the liver
[16]; rats, toxicology studies
  PTC299-related mortality: No PTC299-related mortality was observed
[17]
  EC50: 0.6 nM
